One test addresses T1, MMP-1 (Homo sapiens, UniProt P03956).
T1 construct: made in house; host or cells: MMP-1-transfected HT-1080 cells (spent media)
T1 sequence (P03956 100-469): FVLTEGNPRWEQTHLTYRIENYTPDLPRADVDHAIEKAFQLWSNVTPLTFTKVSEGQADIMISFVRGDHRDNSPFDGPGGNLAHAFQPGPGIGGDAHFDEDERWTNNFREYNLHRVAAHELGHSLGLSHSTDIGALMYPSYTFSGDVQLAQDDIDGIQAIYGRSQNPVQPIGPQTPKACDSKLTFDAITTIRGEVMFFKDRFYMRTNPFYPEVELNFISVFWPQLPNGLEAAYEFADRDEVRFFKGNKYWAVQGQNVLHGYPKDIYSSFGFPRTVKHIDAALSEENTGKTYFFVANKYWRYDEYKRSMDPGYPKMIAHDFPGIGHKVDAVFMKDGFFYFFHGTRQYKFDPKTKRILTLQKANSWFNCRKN
Kind of test: In vitro MMP inhibition, Ki determination (fluorogenic substrate II). In kind it is biochemical. Particulars: value outside parentheses; read-out: MMP-1 Ki.

The target of a further test is T2, MMP-14 (Homo sapiens, UniProt P50281).
T2 construct: The catalytic domain enzyme was expressed in E. coli inclusion bodies, solubilized in urea; made in house
Described as above. Format: biochemical. Particulars: value outside parentheses; read-out: MMP-14 Ki. A digest of the protocol: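 E. coli-expressed, refolded MMP-14 catalytic domain, activated with APMA or trypsin, in 100 mM Tris-HCl pH 7.5, 100 mM NaCl, 10 mM CaCl2, 0.05% Brij-type detergent. Apparent Ki by Morrison-equation regression of velocity vs inhibitor and enzyme concentration.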

Where “and” joins values, the source holds several entries; their conditions need not be identical. Identical values can stand only once.

For `O=C(NO)C1(S(=O)(=O)N2CCN(c3ncc(-c4cccc(-c5ccccc5)c4)s3)CC2)CCOCC1` [Example 365], the inhibition constant (Ki) at MMP-1 and on MMP-14 was greater than 10 µM throughout.
`CC(C)c1ccc(-c2cnc(N3CCN(S(=O)(=O)C4(C(=O)NO)CCOCC4)CC3)s2)cc1` [Example 366]: the Ki was 2.16 µM on MMP-1 and 0.0503 µM at MMP-14.
`O=C(NO)C1(S(=O)(=O)N2CCC(c3ccc(CCC(F)(F)F)cn3)CC2)CCOCC1` [Example 367]: the Ki at MMP-1 stood at 9.76 µM; on MMP-14, 3.29 µM.
The corresponding values for `O=C(NO)C1(S(=O)(=O)N2CCN(c3ncc(-c4ccc(O)cc4)s3)CC2)CCOCC1` [Example 368] are 3.35 µM and 0.18 µM.
`O=C(NO)C1(S(=O)(=O)N2CCN(c3ncc(-c4ccc(Cl)c(Cl)c4)s3)CC2)CCOCC1` [Example 369]: the values for the Ki on MMP-1 and on MMP-14 were greater than 10 µM and 0.343 µM, respectively.
The corresponding values for `Cc1cccc(-c2cnc(N3CCN(S(=O)(=O)C4(C(=O)NO)CCOCC4)CC3)s2)c1` [Example 370] are 5.74 µM and 0.341 µM.
As for `COc1ccc(-c2cnc(N3CCN(S(=O)(=O)C4(C(=O)NO)CCOCC4)CC3)s2)cc1OC` [Example 371], the inhibition constant (Ki) turned out to be 8.25 µM at MMP-1 and 1.59 µM at MMP-14.
Turning to `O=C(NO)C1(S(=O)(=O)N2CCN(c3ccc(-c4ccccc4)cn3)CC2)CCOCC1` [Example 372], the inhibition constant Ki at MMP-1 was 0.611 µM and 0.795 µM; on MMP-14 it was 0.462 µM and 0.47 µM.
As to `O=C(NO)C1(S(=O)(=O)N2CCC(COCc3ccccc3)CC2)CCOCC1` [Example 373], the inhibition constant (Ki) on MMP-1 is greater than 10 µM; at MMP-14, 0.0797 µM.
In the case of `CCC=C1CCN(S(=O)(=O)C2(C(=O)NO)CCOCC2)CC1` [Example 374], the inhibitory constant (Ki) was determined as 0.303 µM on MMP-1 and 0.195 µM at MMP-14.
Taken in the same sequence, the figures for `O=C(NO)C1(S(=O)(=O)N2CCC(COCC(F)(F)C(F)F)CC2)CCOCC1` [Example 375] were greater than 10 µM and 2.86 µM.
On to `O=C(NO)C1(S(=O)(=O)N2CCC(COCC(F)(F)C(F)(F)F)CC2)CCOCC1` [Example 376], for which the values for the Ki at MMP-1 and at MMP-14 were greater than 10 µM and 3.12 µM, respectively.
The corresponding values for `O=C(NO)C1(S(=O)(=O)N2CCC(COCC(F)(F)C(F)(F)C(F)(F)F)CC2)CCOCC1` [Example 377] are greater than 10 µM and greater than 10 µM.
The corresponding values for `O=C(NO)C1(S(=O)(=O)N2CCC(COCC(F)(F)C(F)(F)C(F)(F)C(F)F)CC2)CCOCC1` [Example 378] are greater than 10 µM and greater than 10 µM.
The corresponding values for `CCCCc1ccc(-c2cnc(N3CCN(S(=O)(=O)C4(C(=O)NO)CCOCC4)CC3)s2)cc1` [Example 379] are greater than 10 µM and 0.283 µM.
Consider `CCCCCc1ccc(-c2cnc(N3CCN(S(=O)(=O)C4(C(=O)NO)CCOCC4)CC3)s2)cc1` [Example 380], for which the inhibition constant Ki at MMP-1 was greater than 10 µM; at MMP-14 it was 3.21 µM.
Regarding `CCc1ccc(-c2cnc(N3CCN(S(=O)(=O)C4(C(=O)NO)CCOCC4)CC3)s2)cc1` [Example 381], the values for the inhibition constant Ki on MMP-1 and at MMP-14 were 3.25 µM and 0.0541 µM, respectively.
Regarding `O=C(NO)C1(S(=O)(=O)N2CCN(c3ncc(-c4cccnc4)s3)CC2)CCOCC1` [Example 382], the Ki on MMP-1 worked out at 2.69 µM; at MMP-14 it was 0.778 µM.
Taken in the same sequence, the figures for `NC(=O)c1ccccc1-c1cnc(N2CCN(S(=O)(=O)C3(C(=O)NO)CCOCC3)CC2)s1` [Example 383] were greater than 10 µM and greater than 10 µM.
Taken in the same sequence, the figures for `N#Cc1cccc(-c2cnc(N3CCN(S(=O)(=O)C4(C(=O)NO)CCOCC4)CC3)s2)c1` [Example 384] were 0.266 µM and 0.867 µM.
Taken in the same sequence, the figures for `O=C(NO)C1(S(=O)(=O)N2CCC(c3ccc(OCC(F)(F)C(F)F)cc3)CC2)CCN(CCN2CCOCC2)CC1` [Example 385] were greater than 10 µM and 2.93 µM.
Take `O=C(NO)C1(S(=O)(=O)N2CCN(c3ccc(CCCC(F)(F)F)cc3F)CC2)CCOCC1` [Example 386]: the Ki at MMP-1 and on MMP-14 was greater than 10 µM each time.
Regarding `O=C(NO)C1(S(=O)(=O)N2CCN(c3ncc(-c4ccccn4)s3)CC2)CCOCC1` [Example 387], the inhibition constant Ki is greater than 10 µM on MMP-1 and 4.55 µM at MMP-14.
Taken in the same sequence, the figures for `CCCCc1ccc(C2CCN(S(=O)(=O)C3(C(=O)NO)CCNCC3)CC2)nc1` [Example 388] were greater than 10 µM and greater than 10 µM.
The corresponding values for `O=C(NO)C1(S(=O)(=O)N2CCN(c3ccc(CCCC(F)(F)F)c(F)c3)CC2)CCOCC1` [Example 389] are greater than 10 µM and 3.17 µM.
The corresponding values for `O=C(NO)C1(S(=O)(=O)N2CCC(c3ccc(-c4cccnc4)cn3)CC2)CCOCC1` [Example 390] are 7.88 µM and greater than 10 µM.
For the molecule `O=C(NO)C1(S(=O)(=O)N2CCC(c3ccc(-c4ccccc4)cn3)CC2)CCOCC1` [Example 392], the Ki at MMP-1 was 3.43 µM; at MMP-14, 1.29 µM.
Taken in the same sequence, the figures for `O=C(NO)C1(S(=O)(=O)N2CCC(c3ccc(-c4cccs4)cn3)CC2)CCOCC1` [Example 394] were 2.75 µM and 0.931 µM.
With `O=C(NO)C1(S(=O)(=O)N2CCC(c3ccc(-c4ccc(C(F)(F)F)cc4)cn3)CC2)CCOCC1` [Example 395], the values for the inhibitory constant (Ki) at MMP-1 and at MMP-14 were greater than 10 µM and 1.76 µM, respectively.
Taken in the same sequence, the figures for `CCCCc1ccc(C2CCN(S(=O)(=O)C3(C(=O)NO)CCN(CC)CC3)CC2)nc1` [Example 396] were greater than 10 µM and 7.65 µM.

One may read the Ki as the equilibrium dissociation constant of an inhibitor or competing ligand from its target.

(Values after patent US20050209278A1, “Piperidinyl- and piperazinyl-sulfonylmethyl hydroxamic acids and their use as protease inhibitors” (priority 2002, published 2005).)
